From patent US10952940B2, “Reagents and methods for mineralization of tooth enamel” (UNIVERSITY OF WASHINGTON, priority 2016, dated 2021)
“Also recorded” adds a separate entry of the source.

Legend:
[1] = In vitro re-mineralization of tea-stained human tooth using the peptide solution, optical images and line profile analysis
Description: A caries-free human tooth was sterilized in 1% bleach solution for 24 hours then removed and vigorously rinsed with deionized water. The root site was removed and the crown sectioned vertically using a diamond blade. Pictures were taken with a camera attached to an optical microscope.
The exposed dentine sites were etched with 35% phosphoric acid (Ultraetch™) for 60 seconds (to facilitate the stain intake). The etching gel was removed by rinsing the sample with distilled water for 3 minutes. The staining solution was prepared by boiling 2 g of tea in 100 ml of deionized water for 5 minutes, which was then cooled down to room temperature and filtered. The tooth was soaked in the staining solution and incubated at 37° C. at 150 rpm for 24 hours. The tooth was then removed from the staining solution and sonicated for 30 seconds in deionized water (sonic bath) to remove the excess amount of tea particles attached to tooth extrinsically. The sectioned tooth was cut vertically in half again to form two quarter sections of the tooth. FIGS. 2(a) to 2(g) show various sections of the tooth after the staining. […] Figures (b), (c) and (d) show different views of the left quarter of the tooth that was sectioned from the tooth. […]

[2] = Structural characterization of remineralized layer by TEM; design: species or system human; settings: TEM of fragments shaved off the surface; listed as group 6
Description: After remineralization steps were completed, TEM samples were collected by carefully shaving off the top most surface of the remineralized layer from the artificially created white spot lesion using a clean razor blade. The shaved particles were suspended in 100% ethanol, and the suspension was drop-casted onto a carbon coated TEM grid, which was then vacuum dried before TEM characterization. TEM bright field imaging (BF) imaging and selected areas diffraction were carried out using an FEI Tecnai (FEI, Hillboro, Oreg., USA) operating at 200 keV.
Structural and phase characterization of the samples from all groups were undertaken by transmission electron microscopy imaging and diffraction analysis. This is because x-ray diffraction characterization requires large enough volume with 10s of lam mass thickness and larger spatial sampling, 100s of μms or larger areas. Since the mineralized layer is thin, a few μms in all other group samples to 10 μm or so in group 6 samples using the peptide, TEM has been used to provide the most critical data, diffraction and phase identification. The TEM samples were prepared by gently shaving fragments off the surface of tooth specimens onto carbon-coated TEM grid to prepare and ensure electron transparent sections. All of the TEM data is included in FIG. 13 below for completeness (while only 1st, 4th and 6th columns of data were presented in FIG. 11).

[3] = Nanoindentation of mineralized layers in cross-section; design: species or system human
Description: Similar to SEM specimen preparation, tooth samples were notched from the back of tooth before remineralization, then fractured along the notch. The specimens were then mounted in a room temperature-cure epoxy, and the cross-section of the fracture was polished to 0.1 μm finish using diamond lapping films (Allied High Tech Products Inc., Rancho Dominguez, Calif., USA). Nanoindentation measurements were made using a Triboindentor nanoindentation system (Hysitron Inc., Minneapolis, Minn., USA) in air. Hardness (H) and elastic modulus (Er) were determined by the software accompanying the nanoindentation unit.^40-42 In order to obtain the values that were not indentation volume dependent, maximum indentation depth for all measurements kept at 120±10 nm. All reported H and Er values were averaged over 20 measurements.
Nanoindentation, on the other hand, can handle a much smaller applied load, e.g., in the range of 700 to 800 μN; this range of loads to maintain a nominal total indentation depth of approximately 100 nm (<1 μm in indentation width) reasonable depth for both the WSL and mineralized layer regions. The method provides a dynamic measurement with the indentation system tracking continuously load vs. depth during the indentation process providing a Force-to-depth (F-d) profile of the mechanical response of the sample, including biological hard tissues such as enamel, dentin, and bone. The hardness and elastic modulus were extracted from the linear extrapolation of the unloading curve (see FIG. 14b). Hardness obtained by this method contains partial elastic deformation as well as plastic deformation. With small indentation depth and footprint, indentation characterization of the mineral layer only was possible in cross-section for the group 6 samples where mineral layers were more than 5 μm thick. All other treatment groups, reliable nanoindentation characterization of the layers […] because of the thin, and in some cases, discontinuous natural of the layers. It should also be noted that the nanomechanical properties of the artificially created lesion were also determined, with values similar to those of the mineralized layers. Regardless, the complete nanoindentation values are tabulated in Table 10 where each value represents more than 20 measurements per sample.

[4] = mineralized layer, n ≥ 20, listed as Group 6 (shADP5)
[5] = mineralized layer, n ≥ 20, listed as group 6
[6] = underlying enamel of Group 6 samples

For “SYENSHSQAINVDRT [shADP5, 15-amino acid long amelogenin-derived peptide, shortened human ADP5]”, the “Mean Pixel Intensity (MPI) compared with original and stained tooth” value ([1]; ImageJ line profile, after staining and remineralization) was “higher MPI than the original tooth and the tooth after staining”, the “tooth color compared with control” value ([1]; tea-stained human tooth quarter, peptide 10 min 37° C., then CaCl2/KH2PO4 16 hours) was “lighter in color than the left quarter (control)” and the “structure of mineral found by TEM imaging and diffraction” value [2] was “large particles (in the shown projection) of HAp; also recorded: HAp crystallites with aligned organization”. The “Elastic Modulus (nanoindentation)” value [3, 4] was 58.6 ± 4.7 GPa, the “Hardness (nanoindentation)” value [3, 4] was 2.23 ± 0.23 GPa and the “Elastic Modulus (nanoindentation)” value [3, 5] was 58.6±4.7 GPa. The “Hardness (nanoindentation)” value [3, 5] was 2.23±0.23 GPa, the “Elastic Modulus (nanoindentation)” value [3, 6] was 55.0 ± 4.6 GPa and the “Hardness (nanoindentation)” value [3, 6] was 2.12 ± 0.21 GPa.
